# According to patent US7858647B2, “N-[1,3,4]-thiadiazol-2-yl-benzene sulfonamides, pharmaceutical compositions thereof and methods for their therapeutic use” (Sanofi-Aventis, priority 2005, dated 2010):
# Like-named read-outs stand apart in the source and are kept apart here.
# Experiments:
# [1] = diabetic animal model; cited from earlier work
# [2] = obese, insulin resistant rhesus monkeys, cited from earlier work
# [3] = rhesus monkeys; cited from earlier work
# [4] = cynomolgus monkeys; cited from earlier work
# [5] = two weeks clinical trials in healthy volunteers; cited from earlier work
# human PPARdelta = molecular target: T1, human PPARdelta (Homo sapiens, UniProt Q03181); test: Cellular PPARdelta assay (luciferase reporter, stably transfected HEK cell line); type: cell-based; settings: GR-GAL4-humanPPARdelta-LBD
# T1 construct: amino acids S139-Y441; expressed in transfected cells
# T1 sequence (Q03181 139-441): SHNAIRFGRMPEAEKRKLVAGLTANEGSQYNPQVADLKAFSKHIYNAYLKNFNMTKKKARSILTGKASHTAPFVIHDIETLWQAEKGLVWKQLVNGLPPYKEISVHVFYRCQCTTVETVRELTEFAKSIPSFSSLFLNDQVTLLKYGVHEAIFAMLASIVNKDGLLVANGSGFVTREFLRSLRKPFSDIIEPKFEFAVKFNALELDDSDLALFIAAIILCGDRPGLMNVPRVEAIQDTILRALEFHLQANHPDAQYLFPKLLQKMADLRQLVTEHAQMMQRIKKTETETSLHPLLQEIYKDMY
# Method: The activity of PPARalpha agonists is determined in a 3-day assay which is described below:
# The PPARalpha reporter cell line is cultivated to 80% confluence in DMEM (#41965-039, Invitrogen) which is mixed with the following additions: 10% cs-FCS (fetal calf serum; #SH-30068.03, Hyclone), 0.5 mg/ml zeocin (#R250-01, Invitrogen), 0.5 mg/ml G418 (#10131-027, Invitrogen), 1% penicillin-streptomycin solution (#15140-122, Invitrogen) and 2 mM L-glutamine (#25030-024, Invitrogen). The cultivation takes place in standard cell culture bottles (#353112, Becton Dickinson) in a cell culture incubator at 37° C. in the presence of 5% CO2. The 80%-confluent cells are washed once with 15 ml of PBS (#14190-094, Invitrogen), treated with 3 ml of trypsin solution (#25300-054, Invitrogen) at 37° C. for 2 min, taken up in 5 ml of the DMEM described and counted in a cell counter. After dilution to 500.000 cells/ml, 35,000 cells are seeded in each well of a 96 well microtiter plate with a clear plastic base (#3610, Corning Costar). The plates are incubated in the cell culture incubator at 37° C. and 5% CO2 for 24 h.
# PPARalpha Agonists to be Tested are Dissolved in DMSO in a Concentration of 10 mM. This stock solution is diluted in DMEM (#41965-039, Invitrogen) which is mixed with 5% cs-FCS (#SH-30068.03, Hyclone), 2 mM L-glutamine (#25030-024, Invitrogen) and the previously described antibiotics (zeocin, G418, penicillin and streptomycin). Test substances are tested in 11 different concentrations in the range from 10 μM to 100 pM.
# The medium of the PPARalpha reporter cell line seeded on day 1 is completely removed by aspiration, and the test substances diluted in medium are immediately added to the cells. The dilution and addition of the substances is carried out by a robot (Beckman FX). The final volume of the test substances diluted in medium is 100 μl per well of a 96 well microtiter plate. The DMSO concentration in the assay is less than 0.1% v/v in order to avoid cytotoxic effects of the solvent.
# The assay plates are incubated in an incubator at 37° C. and 5% CO2 for 24 h.
# The PPARalpha reporter cells treated with the test substances are removed from the incubator, and the medium is aspirated off. The cells are lyzed by pipetting 50 μl of Bright Glo reagent (from Promega) into each well of a 96 well microtiter plate. After incubation at room temperature in the dark for 10 minutes, the microtiter plates are measured in the luminometer (Trilux from Wallac). The measuring time for each well of a microtiter plate is 1 sec.
# The raw data from the luminometer are transferred into a Microsoft Excel file. Dose-effect plots and EC50 values of PPAR agonists are calculated using the XL.Fit program as specified by the manufacturer (IDBS).
# The potency of substances which bind to human PPARdelta and activate it in an agonistic manner is analyzed using a stably transfected HEK cell line (HEK=human embryo kidney) which is referred to here as PPARdelta reporter cell line. In analogy to the assay described for PPARalpha, the PPARdelta reporter cell line also contains two genetic elements, a luciferase reporter element (pdeltaM-GAL4-Luc-Zeo) and a PPARdelta fusion protein (GR-GAL4-humanPPARdelta-LBD) which mediates expression of the luciferase reporter element depending on a PPARdelta ligand. The stably and constitutively expressed fusion protein GR-GAL4-humanPPARdelta-LBD binds in the cell nucleus of the PPARdelta reporter cell line via the GAL4 protein portion to the GAL4 DNA binding motifs 5′-upstream of the luciferase reporter element which is stably integrated in the genome of the cell line. There is only little expression of the luciferase reporter gene in the absence of a PPARdelta ligand if fatty acid-depleted fetal calf serum (cs-FCS) is used in the assay. PPARdelta ligands bind and activate the PPARdelta fusion protein and thereby stimulate expression of the luciferase reporter gene. […]
smiles,measurement,setting,value
CCCc1c(OCCCOc2ccc(OCC(=O)O)cc2)ccc(C(C)=O)c1O [Example L-165041],plasma cholesterol,[1],raises
Cc1cc(SCc2sc(-c3ccc(C(F)(F)F)cc3)nc2C)ccc1OCC(=O)O [GW501516],insulin levels,[2]; plasma,decreases
same,triglycerides,[2]; plasma,decreases
same,HDL-cholesterol,[2],raises
same,plasma LDL-cholesterol,[2],decreases
CCCc1c(OCCCSc2nnc(SCC(=O)O)s2)ccc(C(C)=O)c1O [YM-16638],plasma lipids,[3],significantly lowers
same,plasma lipids,[4],significantly lowers
same,plasma lipids,[5],acts in a similar manner
"CCOc1cc(C(F)(F)F)ccc1C(=O)NCCc1ccc(S(=O)(=O)Nc2nnc(C(C)C)s2)cc1 [Example 16, 2-Ethoxy-N-{2-[4-(5-isopropyl-[1,3,4]thiadiazol-2-ylsulfamoyl)-phenyl]-ethyl}-4-trifluoromethyl-benzamide]",EC50,human PPARdelta,46 nM
